According to ChEMBL document CHEMBL1201862, “PubChem BioAssay data set” (2004):
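Grown in 96-well plates, cells were treated for 48 hours with each compound at five concentrations. Insufficient inhibition: endpoint recorded as highest concentration tested. At the GI50, growth is halved.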 Calls of active or inactive are those of the source. No stated cut-off is given here; in the data, active = GI50 up to about 1.1 µM and inactive = higher.

Tests used:
Test in all cases: NCI tumour cell line growth inhibition, 48 h
RPMI-8226 = test system: RPMI-8226
UACC-257 = test system: UACC-257
SNB-19 = test system: SNB-19
OVCAR-4 = test system: OVCAR-4
NCI-H23 = test system: NCI-H23
786-0 = test system: 786-0
SR = test system: SR
NCI-H522 = test system: NCI-H522
LOX IMVI = test system: LOX IMVI
M14 = test system: M14
IGROV-1 = test system: IGROV-1
RXF 631 = test system: RXF 631
MOLT-4 = test system: MOLT-4
OVCAR-3 = test system: OVCAR-3
HCC 2998 = test system: HCC 2998
K562 = test system: K562
UACC-62 = test system: UACC-62
NCI-H460 = test system: NCI-H460
KM-20L2 = test system: KM-20L2
SF-539 = test system: SF-539
XF498 = test system: XF498
SN12C = test system: SN12C
SF-268 = test system: SF-268
A498 = test system: A498
TK-10 = test system: TK-10
HL-60 = test system: HL-60
ACHN = test system: ACHN
SNB-75 = test system: SNB-75
HT-29 = test system: HT-29
OVCAR-8 = test system: OVCAR-8
SK-MEL-2 = test system: SK-MEL-2
LXFL 529 = test system: LXFL 529
Malme-3M = test system: Malme-3M
DMS-273 = test system: DMS-273
SK-OV-3 = test system: SK-OV-3
EKVX = test system: EKVX
NCI-H226 = test system: NCI-H226
HOP-62 = test system: HOP-62
SK-MEL-5 = test system: SK-MEL-5
OVCAR-5 = test system: OVCAR-5
UO-31 = test system: UO-31
M19-MEL = test system: M19-MEL
HOP-92 = test system: HOP-92
SNB-78 = test system: SNB-78
COLO 205 = test system: COLO 205
DLD-1 = test system: DLD-1
CCRF-CEM = test system: CCRF-CEM
KM12 = test system: KM12
DMS-114 = test system: DMS-114
HCT-15 = test system: HCT-15
CAKI-1 = test system: CAKI-1
SF-295 = test system: SF-295
U-251 = test system: U-251
SK-MEL-28 = test system: SK-MEL-28
HOP-18 = test system: HOP-18
A549 = test system: A549
SW-620 = test system: SW-620
HCT-116 = test system: HCT-116
RXF 393 = test system: RXF 393

Compound: N=C(N)N/N=C(/CC1OC(=O)c2ccccc21)c1ccc2ccccc2c1 (stereo not drawn)
- GI50 (RPMI-8226): 17.1 µM (inactive)
- GI50 (UACC-257): 14.6 µM (inactive)
- GI50 (SNB-19): > 100 µM (inactive)
- GI50 (OVCAR-4): 17.2 µM (inactive)
- GI50 (NCI-H23): 26.2 µM (inactive)
- GI50 (786-0): 17.1 µM (inactive)
- GI50 (SR): 14.2 µM (inactive)
- GI50 (NCI-H522): 14.2 µM (inactive)
- GI50 (LOX IMVI): 23.1 µM (inactive)
- GI50 (M14): 16.7 µM (inactive)
- GI50 (IGROV-1): 22.1 µM (inactive)
- GI50 (RXF 631): 21.4 µM (inactive)
- GI50 (MOLT-4): 23.6 µM (inactive)
- GI50 (OVCAR-3): 17.5 µM (inactive)
- GI50 (HCC 2998): 17.3 µM (inactive)
- GI50 (K562): 24.3 µM (inactive)
- GI50 (UACC-62): 17.9 µM (inactive)
- GI50 (NCI-H460): 16.4 µM (inactive)
- GI50 (KM-20L2): 24.7 µM (inactive)
- GI50 (SF-539): 13.2 µM (inactive)
- GI50 (XF498): 7.71 µM (inactive)
- GI50 (SN12C): 19.6 µM (inactive)
- GI50 (SF-268): 13.6 µM (inactive)
- GI50 (A498): 16 µM (inactive)
- GI50 (TK-10): 18.1 µM (inactive)
- GI50 (HL-60): 17.8 µM (inactive)
- GI50 (ACHN): 18.9 µM (inactive)
- GI50 (SNB-75): 20 µM (inactive)
- GI50 (HT-29): 21.9 µM (inactive)
- GI50 (OVCAR-8): 15.8 µM (inactive)
- GI50 (SK-MEL-2): 46.9 µM (inactive)
- GI50 (LXFL 529): 14.6 µM (inactive)
- GI50 (Malme-3M): 14.5 µM (inactive)
- GI50 (DMS-273): 21.6 µM (inactive)
- GI50 (SK-OV-3): 21.9 µM (inactive)
- GI50 (EKVX): 23.1 µM (inactive)
- GI50 (NCI-H226): 13.7 µM (inactive)
- GI50 (HOP-62): 18.5 µM (inactive)
- GI50 (SK-MEL-5): 21.4 µM (inactive)
- GI50 (OVCAR-5): 30.1 µM (inactive)
- GI50 (UO-31): 17.8 µM (inactive)
- GI50 (M19-MEL): 16.2 µM (inactive)
- GI50 (HOP-92): 22 µM (inactive)
- GI50 (SNB-78): > 100 µM (inactive)
- GI50 (COLO 205): 19.6 µM (inactive)
- GI50 (DLD-1): 14 µM (inactive)
- GI50 (CCRF-CEM): 15.1 µM (inactive)
- GI50 (KM12): 12.9 µM (inactive)
- GI50 (DMS-114): 12.9 µM (inactive)
- GI50 (HCT-15): 15.3 µM
- GI50 (CAKI-1): > 100 µM (inactive)
- GI50 (SF-295): 23.8 µM (inactive)
- GI50 (U-251): 14.6 µM (inactive)
- GI50 (SK-MEL-28): 18.6 µM (inactive)
- GI50 (HOP-18): 18.5 µM (inactive)

Compound: C[C@]12Cc3cn[nH]c3C(=O)C1CC[C@@H]1C2CC[C@@]2(C)C1CC[C@]2(C)O (stereo partly drawn)
- GI50 (RPMI-8226): > 100 µM (inactive)
- GI50 (A549): > 100 µM (inactive)
- GI50 (UACC-257): > 100 µM (inactive)
- GI50 (SNB-19): > 100 µM (inactive)
- GI50 (OVCAR-4): > 100 µM (inactive)
- GI50 (NCI-H23): > 100 µM (inactive)
- GI50 (786-0): 89.5 µM (inactive)
- GI50 (NCI-H522): > 100 µM (inactive)
- GI50 (LOX IMVI): > 100 µM (inactive)
- GI50 (M14): > 100 µM (inactive)
- GI50 (IGROV-1): > 100 µM (inactive)
- GI50 (RXF 631): > 100 µM (inactive)
- GI50 (MOLT-4): > 100 µM (inactive)
- GI50 (OVCAR-3): > 100 µM (inactive)
- GI50 (HCC 2998): > 100 µM (inactive)
- GI50 (K562): > 100 µM (inactive)
- GI50 (UACC-62): > 100 µM (inactive)
- GI50 (NCI-H460): > 100 µM (inactive)
- GI50 (KM-20L2): > 100 µM (inactive)
- GI50 (SF-539): 84.5 µM (inactive)
- GI50 (XF498): > 100 µM (inactive)
- GI50 (SN12C): > 100 µM (inactive)
- GI50 (SF-268): > 100 µM (inactive)
- GI50 (A498): > 100 µM (inactive)
- GI50 (TK-10): > 100 µM (inactive)
- GI50 (HL-60): > 100 µM (inactive)
- GI50 (ACHN): > 100 µM (inactive)
- GI50 (SNB-75): 39.7 µM (inactive)
- GI50 (HT-29): > 100 µM (inactive)
- GI50 (OVCAR-8): > 100 µM (inactive)
- GI50 (SK-MEL-2): > 100 µM (inactive)
- GI50 (LXFL 529): > 100 µM (inactive)
- GI50 (Malme-3M): > 100 µM (inactive)
- GI50 (SW-620): > 100 µM (inactive)
- GI50 (DMS-273): > 100 µM (inactive)
- GI50 (HCT-116): > 100 µM (inactive)
- GI50 (SK-OV-3): > 100 µM (inactive)
- GI50 (EKVX): > 100 µM (inactive)
- GI50 (NCI-H226): > 100 µM (inactive)
- GI50 (HOP-62): > 100 µM (inactive)
- GI50 (SK-MEL-5): > 100 µM (inactive)
- GI50 (OVCAR-5): > 100 µM (inactive)
- GI50 (RXF 393): > 100 µM (inactive)
- GI50 (UO-31): > 100 µM (inactive)
- GI50 (M19-MEL): > 100 µM (inactive)
- GI50 (HOP-92): > 100 µM (inactive)
- GI50 (SNB-78): > 100 µM (inactive)
- GI50 (COLO 205): > 100 µM (inactive)
- GI50 (DLD-1): > 100 µM (inactive)
- GI50 (CCRF-CEM): > 100 µM (inactive)
- GI50 (KM12): > 100 µM (inactive)
- GI50 (DMS-114): > 100 µM (inactive)
- GI50 (HCT-15): > 100 µM
- GI50 (CAKI-1): > 100 µM (inactive)
- GI50 (SF-295): > 100 µM (inactive)
- GI50 (U-251): > 100 µM (inactive)
- GI50 (SK-MEL-28): > 100 µM (inactive)
- GI50 (HOP-18): > 100 µM (inactive)
